Experiment [1] deals with primary human mesenchymal stem cells (hMSCs). The experiment is described as follows: Induction of chondrogenesis in hMSCs (nodule area, Rhodamine B / Nile Red). The format is cell-based. The note with it: TGF-β3 as positive control; for Emax: read-out: Max. Activity as % TGF-β3 activity; for EC50: concentration required to induce 50% levels of chondrogenesis, read-out: Conc (nM) of 50% TGF-β3 activity. The method, boiled down: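 Primary hMSCs (passage 3–6) in incomplete chondrogenic induction medium were treated 6 days at 37° C. with 1:3 dilutions (2700–10 nM in 96-well or 5000–2.2 nM in 384-well; 0.03% DMSO). Rhodamine B/Nile Red-stained nodule area was imaged, normalized to DMSO wells, and EC50 was set against TGF-β3 (10 ng/mL).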

For experiment [2], the system named is IL-6 in human monocyte cell line (THP-1 cells). The experiment is described as follows: IL-6 inhibition in LPS-stimulated THP-1 cells (HTRF). The note with it: IL-6 in LPS-stimulated THP-1 cells; for pEC50: HTRF; for inhibition at 10 µM: read-out: percent inhibition in brackets beside EC50 >10 μM. It is filed as cell-based. The method, boiled down:
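THP-1 cells, serum-reduced (1% FBS) for 24 h, were preincubated with compound (10-point 1:3 series from 10 μM, 0.1% DMSO) for 2 h, then stimulated with 500 ng/mL LPS for 22 h at 37° C. IL-6 was read by HTRF (665/620 nm ratio) and normalized to DMSO. EC50 from four-parameter fit; % inhibition at 10 μM given if EC50 >10 μM.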

The structures appear in SMILES notation. pEC50: −log10 of the molar value. A value given as a limit tells only on which side of the number the result lay.

Regarding `CCNCc1cncc(-c2ccc3[nH]nc(-c4nc5c(-c6cc(F)cc(NCCN(C)C)c6)nccc5[nH]4)c3n2)c1` [Compound 454, N^1-(3-(2-(5-(5-((Ethylamino)methyl)pyridin-3-yl)-1H-pyrazolo[4,3-b]pyridin-3-yl)-1H-imidazo[4,5-c]pyridin-4-yl)-5-fluorophenyl)-N^2,N^2-dimethylethane-1,2-diamine], in experiment [1], the Emax was determined as 36%. In addition, the pEC50 in experiment [2] is 5.99.
Take `CC(C)Nc1cncc(-c2ccc3[nH]nc(-c4nc5c(-c6cc(F)cc(NCCN(C)C)c6)nccc5[nH]4)c3n2)c1` [Compound 460, N^1-(3-Fluoro-5-(2-(5-(5-(isopropylamino)pyridin-3-yl)-1H-pyrazolo[4,3-b]pyridin-3-yl)-1H-imidazo[4,5-c]pyridin-4-yl)phenyl)-N^2,N^2-dimethylethane-1,2-diamine]: in experiment [1], the Emax was 116% and the EC50 turned out to be 30 nM. In experiment [2], this compound gave a pEC50 of 5.90.
As for `CCCCC(=O)Nc1cncc(-c2ccc3[nH]nc(-c4nc5c(-c6cc(F)cc(NCCN(C)C)c6)nccc5[nH]4)c3n2)c1` [Compound 467, N-(5-(3-(4-(3-((2-(Dimethylamino)ethyl)amino)-5-fluorophenyl)-1H-imidazo[4,5-c]pyridin-2-yl)-1H-pyrazolo[4,3-b]pyridin-5-yl)pyridin-3-yl)pentanamide], in experiment [1], the Emax was determined as 52% and the EC50 was found to be 100 nM. Besides, in experiment [2], the pEC50 is < 5.00 and the inhibition at 10 µM amounted to 33.1%.
Take `Cc1ccncc1-c1ccc2[nH]nc(-c3nc4c(-c5cc(F)cc(CNS(C)(=O)=O)c5)nccc4[nH]3)c2n1` [Compound 481, N-(3-Fluoro-5-(2-(5-(4-methylpyridin-3-yl)-1H-pyrazolo[4,3-b]pyridin-3-yl)-1H-imidazo[4,5-c]pyridin-4-yl)benzyl)methanesulfonamide]: the Emax in experiment [1] was found to be 30%. Moreover, in experiment [2], the pEC50 is 5.01.
With `CCCC(=O)Nc1cncc(-c2ccc3[nH]nc(-c4nc5c(-c6cc(F)cc(CNS(C)(=O)=O)c6)nccc5[nH]4)c3n2)c1` [Compound 493, N-(5-(3-(4-(3-Fluoro-5-(methylsulfonamidomethyl)phenyl)-1H-imidazo[4,5-c]pyridin-2-yl)-1H-pyrazolo[4,3-b]pyridin-5-yl)pyridin-3-yl)butyramide], the Emax in experiment [1] was determined as 46%. Besides, in experiment [2], the pEC50 was < 5.00 and the inhibition at 10 µM amounted to 20.3%.
The matching figures for `Fc1cccc(-c2nccc3[nH]c(-c4n[nH]c5ccc(C6CCNCC6)nc45)nc23)c1` [Compound 505, 3-(4-(3-Fluorophenyl)-1H-imidazo[4,5-c]pyridin-2-yl)-5-(piperidin-4-yl)-1H-pyrazolo[4,3-b]pyridine]: 46%, < 5.00 and 9.3%.
`Fc1cccc(-c2nccc3[nH]c(-c4n[nH]c5ccc(C6=CCNCC6)nc45)nc23)c1` [Compound 506, 3-(4-(3-Fluorophenyl)-1H-imidazo[4,5-c]pyridin-2-yl)-5-(1,2,3,6-tetrahydropyridin-4-yl)-1H-pyrazolo[4,3-b]pyridine]: in experiment [1], the Emax was determined as 56% and the EC50 stood at 21 nM. Further, in experiment [2], the pEC50 was < 5.00 and the inhibition at 10 µM stood at 34.6%.
Taken in the same sequence, the figures for `Fc1cccc(-c2nccc3[nH]c(-c4n[nH]c5ccc(-c6cn[nH]c6)nc45)nc23)c1` [Compound 507, 3-(4-(3-Fluorophenyl)-1H-imidazo[4,5-c]pyridin-2-yl)-5-(1H-pyrazol-4-yl)-1H-pyrazolo[4,3-b]pyridine] were 70%, 7 nM, < 5.00 and 0%.
For the compound `Cn1cc(-c2ccc3[nH]nc(-c4nc5c(-c6cccc(F)c6)nccc5[nH]4)c3n2)cn1` [Compound 508, 3-(4-(3-Fluorophenyl)-1H-imidazo[4,5-c]pyridin-2-yl)-5-(1-methyl-1H-pyrazol-4-yl)-1H-pyrazolo[4,3-b]pyridine], in experiment [1], the Emax turned out to be 43%. In addition, in experiment [2], the pEC50 was < 5.00 and the inhibition at 10 µM came to 0%.
As for `NC1CN(c2cncc(-c3ccc4[nH]nc(-c5nc6c(-c7cccc(F)c7)nccc6[nH]5)c4n3)n2)C1` [Compound 510, 1-(6-(3-(4-(3-Fluorophenyl)-1H-imidazo[4,5-c]pyridin-2-yl)-1H-pyrazolo [4,3-b]pyridin-5-yl)pyrazin-2-yl)azetidin-3-amine], the Emax in experiment [1] was 36%. Further, in experiment [2], the pEC50 is < 5.00 and the inhibition at 10 µM is 9.4%.
For the compound `CN(C)CCOc1cncc(-c2ccc3[nH]nc(-c4nc5c(-c6cccc(F)c6)nccc5[nH]4)c3n2)c1` [Compound 515, 2-((5-(3-(4-(3-Fluorophenyl)-1H-imidazo[4,5-c]pyridin-2-yl)-1H-pyrazolo [4,3-b]pyridin-5-yl)pyridin-3-yl)oxy)-N,N-dimethylethan-1-amine], in experiment [1], the Emax was determined as 59% and the EC50 came to 2 nM. The compound also gave a pEC50 in experiment [2] of 5.45.
Regarding `COc1cncc(-c2ccc3[nH]nc(-c4nc5c(-c6cccc(F)c6)nccc5[nH]4)c3n2)c1` [Compound 516, 3-(4-(3-Fluorophenyl)-1H-imidazo[4,5-c]pyridin-2-yl)-5-(5-methoxypyridin-3-yl)-1H-pyrazolo[4,3-b]pyridine], in experiment [1], the Emax amounted to 60% and the EC50 amounted to 21 nM. Also, in experiment [2], the pEC50 is < 5.00 and the inhibition at 10 µM worked out at 25.1%.
The matching figures for `Oc1cncc(-c2ccc3[nH]nc(-c4nc5c(-c6cccc(F)c6)nccc5[nH]4)c3n2)c1` [Compound 517, 5-(3-(4-(3-Fluorophenyl)-1H-imidazo[4,5-c]pyridin-2-yl)-1H-pyrazolo[4,3-b]pyridin-5-yl)pyridin-3-ol]: 57%, 7 nM, < 5.00 and 54.4%.
Taken in the same sequence, the figures for `Fc1cccc(-c2nccc3[nH]c(-c4n[nH]c5ccc(-c6cnccn6)nc45)nc23)c1` [Compound 520, 3-(4-(3-Fluorophenyl)-1H-imidazo[4,5-c]pyridin-2-yl)-5-(pyrazin-2-yl)-1H-pyrazolo[4,3-b]pyridine] were 55%, 21 nM, < 5.00 and 29.4%.

Source of the values: patent publication US10195185B2, “3-(1H-imidazo[4,5-C]pyridin-2-yl)-1H-pyrazolo[4,3-B]pyridines and therapeutic uses thereof” (Samumed, LLC, priority 2015, dated 2019).
